pEC50: −log10 of the molar value.

The subject of the test is C6/36 Aedes albopictus cell line infected with Wolbachia pipientis (Wolbachia strain wAlbB). The test is described as follows: In vitro insect cell line assay (anti-Wolbachia screen, SYTO 11 high content imaging). Format: cell-based. To be noted: 168 h; C6/36 Aedes albopictus cells infected with Wolbachia pipientis wAlbB, 7 days incubation, SYTO 11 imaging; read-out: In vitro anti-Wolbachia activity. The method, boiled down:
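Wolbachia wAlbB-infected C6/36 Aedes albopictus cells were exposed to compounds at a final 5 μM for 7 days at 26 °C, with DMSO-medium wells as untreated controls. Cells were then stained with SYTO 11 for 15 min, imaged by high-content microscopy and scored by texture analysis.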

`CC(Nc1ncnc2ccsc12)c1ccccc1Cl` (stereo not shown) [Example 38, N-(1-(2-chlorophenyl)ethyl)thieno[3,2-d]pyrimidin-4-amine]: the pEC50 was 4.00 to 6.00.
Next, `CC(C)Nc1nc(NCc2ccc(S(C)(=O)=O)cc2)c2ccccc2n1` [Example 110, N^2-isopropyl-N^4-(4-(methylsulfonyl)benzyl)quinazoline-2,4-diamine]: 4.00 to 6.00; `FC(F)(F)c1ccccc1CNc1nc(N2CC3CC(C2)O3)nc2ncccc12` [Example 300, 2-(6-oxa-3-azabicyelo[3.1.1]heptan-3-yl)-N-(2-(trifluoromethyl)benzyl)pyrido[2,3-d]pyrimidin-4-amine]: above 11.00.
Consider `CC1CN(c2nc(NCc3cccnc3C(F)(F)F)c3cccnc3n2)CCO1` (stereo not shown) [Example 241, 2-(2-methylmorpholino)-N-((2-(trifluoromethyl)pyridin-3-yl)methyl)pyrido[2,3-d]pyrimidin-4-amine], for which the pEC50 is 9.00 to 11.00.
Next, `CC(C)Nc1nc(NCc2cccnc2C(F)(F)F)c2sccc2n1` [Example 153, N^2-isopropyl-N^4-((2-(trifluoromethyl)pyridin-3-yl)methyl)thieno[3,2-d]pyrimidine-2,4-diamine]: 7.00 to 8.00; `FC1(F)CCN(Cc2nc(NCc3cccnc3C(F)(F)F)c3cccnc3n2)C1` [Example 230, 2-((3,3-difluoropyrrolidin-1-yl)methyl)-N-((2-(trifluoromethyl)pyridin-3-yl)methyl)pyrido[2,3-d]pyrimidin-4-amine]: 4.00 to 6.00.
Next, `FC1(F)CCN(c2nc(NCc3cccnc3C(F)(F)F)c3cccnc3n2)C1` [Example 194, 2-(3,3-difluoropyrrolidin-1-yl)-N-((2-(trifluoromethyl)pyridin-3-yl)methyl)pyrido[2,3-d]pyrimidin-4-amine]: 8.00 to 9.00; `FC(F)(F)c1ccccc1CNc1nc(N2CCC(C(F)(F)F)C2)nc2ncccc12` (stereo not shown) [Example 266, N-(2-(trifluoromethyl)benzyl)-2-(3-(trifluoromethyl)pyrrolidin-1-yl)pyrido[2,3-d]pyrimidin-4-amine]: 8.00 to 9.00.
Then `Fc1ccc(CNc2ncnc3ccsc23)c(C(F)(F)F)c1` [Example 60, N-(4-fluoro-2-(trifluoromethyl)benzyl)thieno[3,2-d]pyrimidin-4-amine], with 7.00 to 8.00; and `Cc1csc2c(NC(C)c3ccccc3C(F)(F)F)ncnc12` (stereo not shown) [Example 105, 7-methyl-N-(1-(2-(trifluoromethyl)phenyl)ethyl)thieno[3,2-d]pyrimidin-4-amine], with 4.00 to 6.00.
As for `N#CC1CN(c2nc(NCc3cccnc3C(F)(F)F)c3cccnc3n2)CCO1` (stereo not shown) [Example 257, 4-(4-(((2-(trifluoromethyl)pyridin-3-yl)methyl)amino)pyrido[2,3-d]pyrimidin-2-yl)morpholine-2-carbonitrile], the pEC50 is 7.00 to 8.00.
On to `FC1(F)CCN(c2nc(N3CCC3c3cccnc3C(F)(F)F)c3cccnc3n2)C1` (stereo not shown) [Example 220, 2-(3,3-difluoropyrrolidin-1-yl)-4-(2-(2-(trifluoromethyl)pyridin-3-yl)azetidin-1-yl)pyrido[2,3-d]pyrimidine], for which the pEC50 was 9.00 to 11.00.
Take `CC(C)Nc1nc(NCc2ccc(Cl)cc2)c2ccccc2n1` [Example 136, N^4-(4-chlorobenzyl)-N^2-isopropylquinazoline-2,4-diamine]: the pEC50 was 4.00 to 6.00.
Then `CS(=O)(=O)c1ccccc1CNc1nc(Cl)nc2ccccc12` [Example 113], with 4.00 to 6.00; and `FC(F)(F)c1ccccc1CNc1nc(N2CCOCC23CCC3)nc2ncccc12` [Example 285, 2-(8-oxa-5-azaspiro[3.5]nonan-5-yl)-N-(2-(trifluoromethyl)benzyl)pyrido[2,3-d]pyrimidin-4-amine], with 7.00 to 8.00; and `CC1CCN(c2nc(NCc3cccnc3C(F)(F)F)c3cccnc3n2)CC1` [Example 312, 2-(4-methylpiperidin-1-yl)-N-((2-(trifluoromethyl)pyridin-3-yl)methyl)pyrido[2,3-d]pyrimidin-4-amine], with 9.00 to 11.00.
Next, `FC(F)C1CN(c2nc(NCc3cccnc3C(F)(F)F)c3cccnc3n2)CCO1` (stereo not shown) [Example 282, 2-(2-(difluoromethyl)morpholino)-N-((2-(trifluoromethyl)pyridin-3-yl)methyl)pyrido[2,3-d]pyrimidin-4-amine]: 9.00 to 11.00; `CNCc1nc(NCc2ccccc2C(F)(F)F)c2cccnc2n1` [Example 145, 2-((methylamino)methyl)-N-(2-(trifluoromethyl)benzyl)pyrido[2,3-d]pyrimidin-4-amine]: 4.00 to 6.00.
Next, `FCC1CCCN(c2nc(NCc3cccnc3C(F)(F)F)c3cccnc3n2)C1` (stereo not shown) [Example 258, 2-(3-(fluoromethyl)piperidin-1-yl)-N-((2-(trifluoromethyl)pyridin-3-yl)methyl)pyrido[2,3-d]pyrimidin-4-amine]: above 11.00; `NC(=O)c1nc(NCc2ccccc2C(F)(F)F)c2sccc2n1` [Example 155, 4-((2-(trifluoromethyl)benzyl)amino)thieno[3,2-d]pyrimidine-2-carboxamide]: 4.00 to 6.00.
Regarding `COc1cccc(CNc2ncnc3ccsc23)c1C(F)(F)F` [Example 51, N-(3-methoxy-2-(trifluoromethyl)benzyl)thieno[3,2-d]pyrimidin-4-amine], the pEC50 was 7.00 to 8.00.
Next, `CC1(C)COCCN1c1nc(NCc2ccccc2C(F)(F)F)c2cccnc2n1` [Example 246, 2-(3,3-dimethylmorpholino)-N-(2-(trifluoromethyl)benzyl)pyrido[2,3-d]pyrimidin-4-amine]: 6.00 to 7.00; `FC(F)(F)c1ccccc1CNc1nc(N2CC3CC2CO3)nc2ncccc12` (stereo not shown) [Example 267, 2-(2-oxa-5-azabicyclo[2.2.1]heptan-5-yl)-N-(2-(trifluoromethyl)benzyl)pyrido[2,3-d]pyrimidin-4-amine]: above 11.00.
On to `FC(F)(F)c1ncccc1CNc1nc(N2CCOC3CC32)nc2ncccc12` (stereo not shown) [Example 294, 2-(2-oxa-5-azabicyclo[4.1.0]heptan-5-yl)-N-((2-(trifluoromethyl)pyridin-3-yl)methyl)pyrido[2,3-d]pyrimidin-4-amine], for which the pEC50 was 9.00 to 11.00.
Then `Cc1nc(NCc2ccccc2C(F)(F)F)c2sccc2n1` [Example 55, 2-methyl-N-(2-(trifluoromethyl)benzyl)thieno[3,2-d]pyrimidin-4-amine], with 7.00 to 8.00; and `CC(C)Nc1nc(NCc2ccc(C(F)(F)F)cc2)c2cccnc2n1` [Example 129, N^2-isopropyl-N^4-(4-(trifluoromethyl)benzyl)pyrido[2,3-d]pyrimidine-2,4-diamine], with 6.00 to 7.00.
Then `COc1ccc(CNc2nc(NC(C)C)nc3ccccc23)cc1` [Example 138, N^2-isopropyl-N^4-(4-methoxybenzyl)quinazoline-2,4-diamine], with 4.00 to 6.00; and `CCN(Cc1ccccc1C(F)(F)F)c1ncnc2ccsc12` [Example 54, N-ethyl-N-(2-(trifluoromethyl)benzyl)thieno[3,2-d]pyrimidin-4-amine], with 8.00 to 9.00.
Consider `Cc1ccc(Nc2ncnc3ccsc23)c(C)c1` [Example 31, N-(2,4-dimethylphenyl)thieno[3,2-d]pyrimidin-4-amine], for which the pEC50 was 4.00 to 6.00.
As to `CC(C)N(C)c1nc(N2CCC2c2ccccc2C(F)(F)F)c2cccnc2n1` (stereo not shown) [Example 184, N-isopropyl-N-methyl-4-(2-(2-(trifluoromethyl)phenyl)azetidin-1-yl)pyrido[2,3-d]pyrimidin-2-amine], the pEC50 is 9.00 to 11.00.
Next, `CC1(O)CN(c2nc(NCc3cccnc3C(F)(F)F)c3cccnc3n2)C1` [Example 171, 3-methyl-1-(4-(((2-(trifluoromethyl)pyridin-3-yl)methyl)amino)pyrido[2,3-d]pyrimidin-2-yl)azetidin-3-ol]: 6.00 to 7.00; `CC1COCCN1c1nc(NCc2ccccc2C(F)(F)F)c2nccnc2n1` (stereo not shown) [Example 310, 2-(3-methylmorpholino)-N-(2-(trifluoromethyl)benzyl)pteridin-4-amine]: 6.00 to 7.00.
Next, `FC1CCN(c2nc(NCc3cccnc3C(F)(F)F)c3cccnc3n2)CC1` [Example 195, 2-(4-fluoropiperidin-1-yl)-N-((2-(trifluoromethyl)pyridin-3-yl)methyl)pyrido[2,3-d]pyrimidin-4-amine]: 8.00 to 9.00.
Next, `CNCc1nc(NCc2ccccc2C(F)(F)F)c2sccc2n1` [Example 154, 2-((methylamino)methyl)-N-(2-(trifluoromethyl)benzyl)thieno[3,2-d]pyrimidin-4-amine]: 4.00 to 6.00; `CC(C)N(C)c1nc(N2CCOCC2c2ccccc2C(F)(F)F)c2cccnc2n1` (stereo not shown) [Example 188, N-isopropyl-N-methyl-4-(3-(2-(trifluoromethyl)phenyl)morpholino)pyrido[2,3-d]pyrimidin-2-amine]: 4.00 to 6.00.
In the case of `COc1ccc(CNc2nc(NC(C)C)nc3ccsc23)cc1OC` [Example 133, N^4-(3,4-dimethoxybenzyl)-N^2-isopropylthieno[3,2-d]pyrimidine-2,4-diamine], the pEC50 is 4.00 to 6.00.
Next, `FC(F)(F)OCC1CCCN1c1nc(NCc2cccnc2C(F)(F)F)c2cccnc2n1` (stereo not shown) [Example 299, 2-(2-((trifluoromethoxy)methyl)pyrrolidin-1-yl)-N-((2-(trifluoromethyl)pyridin-3-yl)methyl)pyrido[2,3-d]pyrimidin-4-amine]: above 11.00; `FC(F)(F)c1ncccc1CNc1ncnc2ncc(Br)cc12` [Example 180]: 4.00 to 6.00.
For `COc1cnc2nc(N3CCOCC3C)nc(NCc3cccnc3C(F)(F)F)c2c1` (stereo not shown) [Example 304], the pEC50 was 4.00 to 6.00.
As to `COc1ccccc1CNc1nc(NCCCN2CCCC2=O)c2sccc2n1` [Example 35, 1-(3-((2-((2-methoxybenzyl)amino)thieno[3,2-d]pyrimidin-4-yl)amino)propyl)pyrrolidin-2-one], the pEC50 was 6.00 to 7.00.
